These results are taken from patent US20230339886A1 (University of Florida Research Foundation, Incorporated, priority 2020, published 2023).

SMILES strings stand for the structures.

The target in this experiment is T1, REV-ERBα LBD (human; residues 281-614 Δ324-422) (Homo sapiens, UniProt P20393, DEL324-422).
T1 construct: 6×Histag-REV-ERBα LBD (human; residues 281-614 Δ324-422); made in house; host or cells: Escherichia coli
T1 sequence (P20393 with tags, fused parts or gaps DEL324-422): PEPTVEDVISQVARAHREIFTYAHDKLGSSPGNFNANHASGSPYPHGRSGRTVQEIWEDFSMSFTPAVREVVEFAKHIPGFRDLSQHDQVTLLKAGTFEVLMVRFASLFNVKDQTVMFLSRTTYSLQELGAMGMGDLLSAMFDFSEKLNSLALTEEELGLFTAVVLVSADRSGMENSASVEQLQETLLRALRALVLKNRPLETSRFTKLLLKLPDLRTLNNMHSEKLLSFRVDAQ
T1 sequence (Q9Y618 2335-2356 partner limits assumed): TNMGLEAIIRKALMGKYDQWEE
Put plainly: TR-FRET corepressor interaction assay (REV-ERBα LBD, FITC-SMRT peptide). Particulars: Table 2, read-out: REVERBα agonism (EC50 class, FRET assay). The class given is biochemical. An outline of the steps:
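Compound serial dilutions (in DMSO, triplicate) incubated 2 h at 4 °C; Tb donor excited at 340 nm, emission read at 495 nm and FITC acceptor at 520 nm. TR-FRET ratio (520/495 nm) plotted against ligand concentration and fitted to a sigmoidal dose-response curve.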
As for `CC(C)S(=O)(=O)CCn1cc(CC(C)(C)C)c2cc(Br)ccc21` [Example 175, 5-bromo-1-(2-(isopropylsulfonyl)ethyl)-3-neopentyl-1H-indole], the EC50 is > 3000 nM. Consider `CC(C)Cn1cc(CCNS(=O)(=O)N(C)C)c2cc(F)c(-c3ccncc3)cc21` [Example 176, ({2-[5-fluoro-1-(2-methylpropyl)-6-(pyridin-4-yl)-1H-indol-3-yl]ethyl}sulfamoyl)dimethylamine], for which the EC50 is < 500 nM. For `CC(C)Cn1cc(C(C)(C)CNS(=O)(=O)N(C)C)c2ccc(-c3ccncc3)cc21` [Example 177, dimethyl({2-methyl-2-[1-(2-methylpropyl)-6-(pyridin-4-yl)-1H-indol-3-yl]propyl}sulfamoyl)amine], the 50% effective concentration (EC50) fell in the range of 500 to 3000 nM. The figure for `CC(C)Cn1cc(C2(CNS(=O)(=O)N(C)C)CC2)c2ccc(-c3ccncc3)cc21` [Example 178, dimethyl[({1-[1-(2-methylpropyl)-6-(pyridin-4-yl)-1H-indol-3-yl]cyclopropyl}methyl)sulfamoyl]amine] is < 500 nM; for `CN(C)S(=O)(=O)NCCc1cn(CCC(F)(F)F)c2cc(-c3ccncc3)ccc12` [Example 179, dimethyl({2-[6-(pyridin-4-yl)-1-(3,3,3-trifluoropropyl)-1H-indol-3-yl]ethyl}sulfamoyl)amine] it is < 500 nM; for `CC(C)C(=O)n1cc(CNS(=O)(=O)N(C)C)c2ccc(-c3ccncc3)cc21` [Example 182, 1-(3-{[(dimethylsulfamoyl)amino]methyl}-6-(pyridin-4-yl)-1H-indol-1-yl)-2-methylpropan-1-one] it is 500 to 3000 nM. Turning to `CC(C)C(=O)n1cc(CNS(=O)(=O)N(C)C)c2ccc(-c3ccccc3Cl)cc21` [Example 183], the EC50 lay in the range of 500 to 3000 nM. For `CC(C)C(=O)n1cc(CNS(=O)(=O)N(C)C)c2ccc(-c3ccnn3C)cc21` [Example 184, 1-(3-{[(dimethylsulfamoyl)amino]methyl}-6-(1-methyl-1H-pyrazol-5-yl)-1H-indol-1-yl)-2-methylpropan-1-one] the value was > 3000 nM. For the molecule `CC(C)C(=O)n1cc(CNS(=O)(=O)N(C)C)c2ccc(-c3ccccc3C(F)(F)F)cc21` [Example 185, 1-(3-{[(dimethylsulfamoyl)amino]methyl}-6-[2-(trifluoromethyl)phenyl]-1H-indol-1-yl)-2-methylpropan-1-one], the EC50 was < 500 nM. As for `CN(C)S(=O)(=O)NCc1cn(C(=O)C(C)(C)C)c2cc(-c3ccncc3)ccc12` [Example 186, 1-(3-{[(dimethylsulfamoyl)amino]methyl}-6-(pyridin-4-yl)-1H-indol-1-yl)-2,2-dimethylpropan-1-one], the EC50 was 500 to 3000 nM.

As for `CCC(=O)n1cc(CNS(=O)(=O)N(C)C)c2ccc(-c3ccncc3)cc21` [Example 187, 1-(3-{[(dimethylsulfamoyl)amino]methyl}-6-(pyridin-4-yl)-1H-indol-1-yl)propan-1-one], the EC50 is > 3000 nM. The figure for `CCC(C)C(=O)n1cc(CNS(=O)(=O)N(C)C)c2ccc(-c3ccncc3)cc21` (centres unmarked) [Example 188, 1-(3-{[(dimethylsulfamoyl)amino]methyl}-6-(pyridin-4-yl)-1H-indol-1-yl)-2-methylbutan-1-one] is < 500 nM; for `CN(C)S(=O)(=O)NCCn1cc(CC(C)(C)C)c2cc(-c3ccncc3)ccc21` [Example 189, N-{2-[5-(pyridin-4-yl)-3-(2,2-dimethylpropyl)-1H-indol-1-yl]ethyl}-N,N-dimethylsulfuric diamide] it is < 500 nM. For `CN(C)S(=O)(=O)NCCn1cc(CC(C)(C)C)c2cc(-c3ccccc3Cl)ccc21` [Example 190, N-{2-[5-(2-chlorophenyl)-3-(2,2-dimethylpropyl)-1H-indol-1-yl]ethyl}-N,N-dimethyl-sulfuric diamide] the value was < 500 nM; for `CN(C)C(=O)n1cc(CCNS(=O)(=O)N(C)C)c2ccc(-c3ccncc3)cc21` [Example 194, 3-(2-((N,N-dimethylsulfamoyl)amino)ethyl)-N,N-dimethyl-6-(pyridin-4-yl)-1H-indole-1-carboxamide], > 3000 nM; for `CC(C)C(=O)n1cc(C(C)NS(=O)(=O)N(C)C)c2ccc(-c3ccccc3Cl)cc21` (centres unmarked) [Example 196, 1-[6-(2-chlorophenyl)-3-{1-[(dimethylsulfamoyl)amino]ethyl}-1H-indol-1-yl]-2-methylpropan-1-one], < 500 nM. The figure for `CC(NS(=O)(=O)N(C)C)c1cn(C(=O)C(C)(C)C)c2cc(-c3ccncc3)ccc12` (centres unmarked) [Example 197, 1-(3-{1-[(dimethylsulfamoyl)amino]ethyl}-6-(pyridin-4-yl)-1H-indol-1-yl)-2,2-dimethylpropan-1-one] is < 500 nM; for `Cc1cc(-c2ccncc2)cc2c1c(CCNS(=O)(=O)N(C)C)cn2CC(C)C` [Example 202, dimethyl({2-[4-methyl-1-(2-methylpropyl)-6-(pyridin-4-yl)-1H-indol-3-yl]ethyl}sulfamoyl)amine] it is > 3000 nM. On to `CC(C)Cn1cc(C(C)NS(=O)(=O)C2CC2)c2ccc(-c3ccccc3C(F)(F)F)cc21` (centres unmarked) [Example 204, N-(1-(1-isobutyl-6-(2-(trifluoromethyl)phenyl)-1H-indol-3-yl)ethyl)cyclopropanesulfonamide], for which the EC50 is < 500 nM. Regarding `CC(C)Cn1cc(C2(NS(=O)(=O)N(C)C)CC2)c2ccc(-c3ccncc3)cc21` [Example 207, dimethyl({1-[1-(2-methylpropyl)-6-(pyridin-4-yl)-1H-indol-3-yl]cyclopropyl}sulfamoyl)amine], the EC50 is > 3000 nM. The figure for `CC(C)Cn1cc(C(NS(=O)(=O)C2CC2)C(F)(F)F)c2ccc(-c3ccccc3C(F)(F)F)cc21` (centres unmarked) [Example 208] is < 500 nM. For `CC(C)(C)Cc1cn(CCNS(=O)(=O)C2CC2)c2ccc(-c3cccc4ccccc34)cc12` [Example 209, N-(2-(5-(naphthalen-1-yl)-3-neopentyl-1H-indol-1-yl)ethyl)cyclopropane-sulfonamide] the value was < 500 nM; for `CC(C)(C)Cc1cn(CCNS(=O)(=O)C2CC2)c2ccc(-c3ccc4ccccc4c3)cc12` [Example 210, N-(2-(5-(naphthalen-2-yl)-3-neopentyl-1H-indol-1-yl)ethyl)cyclopropane-sulfonamide], 500 to 3000 nM. For `CC(C)(C)Cc1cn(CCNS(=O)(=O)C2CC2)c2ccc(-c3ccc4cc(O)ccc4c3)cc12` [Example 211, N-(2-(5-(6-hydroxynaphthalen-2-yl)-3-neopentyl-1H-indol-1-yl)ethyl)cyclopropane sulfonamide] the value was 500 to 3000 nM; for `CC(C)(C)Cc1cn(CCNS(=O)(=O)C2CC2)c2ccc(-c3ccccc3Cl)cc12` [Example 213, N-(2-(5-(2-chlorophenyl)-3-neopentyl-1H-indol-1-yl)ethyl)cyclopropanesulfonamide], < 500 nM; for `CC(C)(C)Cc1cn(CCNS(=O)(=O)C2CC2)c2ccc(-c3nccc4ccccc34)cc12` [Example 215, N-(2-(5-(isoquinolin-1-yl)-3-neopentyl-1H-indol-1-yl)ethyl)cyclopropane-sulfonamide], > 3000 nM.

On to `CC(C)(C)Cc1cn(CCNS(=O)(=O)C2CC2)c2ccc(-c3cccc4ccncc34)cc12` [Example 217, N-(2-(5-(isoquinolin-8-yl)-3-neopentyl-1H-indol-1-yl)ethyl)cyclopropane-sulfonamide], for which the EC50 lay in the range of 500 to 3000 nM.

Turning to `CC(C)(C)Cc1cn(CCNS(=O)(=O)C2CC2)c2ccc(-c3cncc4ccccc34)cc12` [Example 218, N-(2-(5-(isoquinolin-4-yl)-3-neopentyl-1H-indol-1-yl)ethyl)cyclopropane-sulfonamide], the EC50 is 500 to 3000 nM. The figure for `CC(C)(C)Cc1cn(CCNS(=O)(=O)C2CC2)c2ccc(-c3ccc(F)c4ccccc34)cc12` [Example 219, N-(2-(5-(4-fluoronaphthalen-1-yl)-3-neopentyl-1H-indol-1-yl)ethyl)cyclopropanesulfonamide] is < 500 nM; for `CC(C)Cn1cc([C@@H](NS(=O)(=O)C2CC2)C(F)(F)F)c2ccc(-c3ccccc3C(F)(F)F)cc21` [Example 222, (R)—N-(2,2,2-trifluoro-1-(1-isobutyl-6-(2-(trifluoromethyl)phenyl)-1H-indol-3-yl)ethyl)cyclopropanesulfonamide] it is 500 to 3000 nM; for `CC(C)Cn1cc(C(NS(=O)(=O)N(C)C)C(F)(F)F)c2ccc(-c3ccccc3C(F)(F)F)cc21` (centres unmarked) [Example 223, dimethyl({2,2,2-trifluoro-1-[1-(2-methylpropyl)-6-[2-(trifluoromethyl)phenyl]-1H-indol-3-yl]ethyl}sulfamoyl)amine] it is < 500 nM.

For the molecule `CC(C)Cn1cc(C(NS(=O)(=O)C(C)C)C(F)(F)F)c2ccc(-c3ccccc3C(F)(F)F)cc21` (centres unmarked) [Example 224, N-(2,2,2-trifluoro-1-(1-isobutyl-6-(2-(trifluoromethyl)phenyl)-1H-indol-3-yl)ethyl)propane-2-sulfonamide], the EC50 was 500 to 3000 nM. The figure for `CC(C)(C)Cc1cn(CCNS(=O)(=O)C2CC2)c2ccc(-c3ccccc3)cc12` [Example 225, N-(2-(3-neopentyl-5-phenyl-1H-indol-1-yl)ethyl)cyclopropanesulfonamide] is 500 to 3000 nM. The figure for `CC(C)(C)Cc1cn(CCNS(=O)(=O)C2CC2)c2ccc(-c3cccc(F)c3Cl)cc12` [Example 228, N-(2-(5-(2-chloro-3-fluorophenyl)-3-neopentyl-1H-indol-1-yl)ethyl)cyclopropane sulfonamide] is < 500 nM; for `CC(C)(C)Cc1cn(CCNS(=O)(=O)C2CC2)c2ccc(-c3ccc(N)c(F)c3Cl)cc12` [Example 229, N-(2-(5-(4-amino-2-chloro-3-fluorophenyl)-3-neopentyl-1H-indol-1-yl)ethyl) cyclo-propanesulfonamide] it is < 500 nM.
